Test results as given in patent publication US10377753B2, “Substituted 4-azaindoles and their use as GluN2B receptor modulators” (Janssen Pharmaceutica NV, priority 2015, dated 2019).

target: cloned human NR1/NR2B ion channels (Homo sapiens (Human), UniProt Q05586+Q13224); assay: HNR2BC: effects of test articles on cloned human NR1/NR2B ion channels expressed in mammalian cells (FLIPR calcium flux); format: cell-based; conditions: cloned human NR1/NR2B ion channels, Table 5
Outline: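 Compounds were added to dye-loaded cells for 5 min with fluorescence monitored for agonism, followed by co-agonists (glutamate ~EC80, glycine 10 μM saturating) for 5 min. Cells stably expressed inducible human NR1/NR2B, and the buffer was pH 7.4. The FLIPR Ca2+ flux signal was normalized against control wells.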

cloned human NR1/NR2B ion channels, sequence (Q13224 27-1484, other chains not shown): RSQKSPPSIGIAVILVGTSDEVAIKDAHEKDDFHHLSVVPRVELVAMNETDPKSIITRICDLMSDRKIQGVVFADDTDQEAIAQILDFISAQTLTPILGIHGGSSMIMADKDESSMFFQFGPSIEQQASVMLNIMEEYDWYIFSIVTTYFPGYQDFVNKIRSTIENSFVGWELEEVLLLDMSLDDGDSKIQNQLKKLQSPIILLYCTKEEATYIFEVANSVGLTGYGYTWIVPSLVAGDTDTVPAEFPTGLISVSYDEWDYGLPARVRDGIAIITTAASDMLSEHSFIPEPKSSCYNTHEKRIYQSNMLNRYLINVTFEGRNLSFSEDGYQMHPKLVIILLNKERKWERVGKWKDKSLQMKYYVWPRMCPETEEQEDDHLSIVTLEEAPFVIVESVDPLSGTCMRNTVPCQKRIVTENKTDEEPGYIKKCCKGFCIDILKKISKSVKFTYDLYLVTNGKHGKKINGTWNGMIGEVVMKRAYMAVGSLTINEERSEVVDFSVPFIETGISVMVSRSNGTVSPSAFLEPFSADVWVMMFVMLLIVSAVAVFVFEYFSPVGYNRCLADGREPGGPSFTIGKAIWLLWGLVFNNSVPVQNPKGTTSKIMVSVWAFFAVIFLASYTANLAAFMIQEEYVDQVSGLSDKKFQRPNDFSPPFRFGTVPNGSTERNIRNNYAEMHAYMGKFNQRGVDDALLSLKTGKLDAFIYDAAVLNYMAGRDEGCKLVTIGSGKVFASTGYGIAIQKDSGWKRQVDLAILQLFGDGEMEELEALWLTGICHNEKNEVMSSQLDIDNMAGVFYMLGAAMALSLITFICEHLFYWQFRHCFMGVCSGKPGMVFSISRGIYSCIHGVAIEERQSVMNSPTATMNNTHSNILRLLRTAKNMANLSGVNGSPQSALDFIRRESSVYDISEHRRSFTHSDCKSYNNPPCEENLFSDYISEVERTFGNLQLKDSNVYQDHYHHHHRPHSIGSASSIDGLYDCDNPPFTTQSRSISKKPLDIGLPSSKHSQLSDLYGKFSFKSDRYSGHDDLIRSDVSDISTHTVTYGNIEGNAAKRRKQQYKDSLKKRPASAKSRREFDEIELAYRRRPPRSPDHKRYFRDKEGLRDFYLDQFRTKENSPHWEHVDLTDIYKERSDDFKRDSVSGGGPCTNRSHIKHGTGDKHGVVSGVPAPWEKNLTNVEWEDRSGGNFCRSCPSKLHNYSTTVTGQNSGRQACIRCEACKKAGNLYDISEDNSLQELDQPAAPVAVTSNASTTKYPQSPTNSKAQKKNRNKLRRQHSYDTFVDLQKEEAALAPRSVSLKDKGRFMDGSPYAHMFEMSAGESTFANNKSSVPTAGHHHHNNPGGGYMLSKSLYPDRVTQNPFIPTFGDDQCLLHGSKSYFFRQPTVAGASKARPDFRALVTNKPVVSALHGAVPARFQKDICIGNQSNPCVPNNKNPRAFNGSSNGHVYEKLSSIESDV

First: Cc1c(F)ccc(-c2cnc3c(F)cn(CC(=O)N4CCC4)c3c2)c1F [Example 480, 1-(Azetidin-1-yl)-2-[6-(2,4-difluoro-3-methyl-phenyl)-3-fluoro-pyrrolo[3,2-b]pyridin-1-yl]ethanone]
Second: Cc1c(F)ccc(-c2cnc3c(F)cn(CC(=O)N4CC(F)C4)c3c2)c1F [Example 488, 2-[6-(2,4-Difluoro-3-methyl-phenyl)-3-fluoro-pyrrolo[3,2-b]pyridin-1-yl]-1-(3-fluoroazetidin-1-yl)ethanone]
The IC50 of the first is 2.5-fold higher: 39.8 nM for the first, 15.8 nM for the second.

First: O=C(Cn1cc(F)c2ncc(-c3ccc(F)c(Cl)c3)cc21)N1CCC1 [Example 481, 1-(Azetidin-1-yl)-2-[6-(3-chloro-4-fluoro-phenyl)-3-fluoro-pyrrolo[3,2-b]pyridin-1-yl]ethanone]
Second: O=C(Cn1cc(F)c2ncc(-c3cccc(F)c3)cc21)N1CCC1 [Example 506, 1-(Azetidin-1-yl)-2-[3-fluoro-6-(3-fluorophenyl)pyrrolo[3,2-b]pyridin-1-yl]ethanone]
The IC50 of the first is 1.6-fold higher: 25.1 nM for the first, 15.8 nM for the second. The second is the more potent here.

Compared with O=C(Cn1cc(F)c2ncc(-c3ccccc3)cc21)N1CC(F)C1 [Example 482, 1-(3-Fluoroazetidin-1-yl)-2-(3-fluoro-6-phenyl-pyrrolo[3,2-b]pyridin-1-yl)ethanone], O=C(Cn1cc(F)c2ncc(-c3ccccc3)cc21)N1CCC1 [Example 497, 1-(Azetidin-1-yl)-2-(3-fluoro-6-phenyl-pyrrolo[3,2-b]pyridin-1-yl)ethanone] is 2-fold higher in IC50: 15.8 nM for the first, 31.6 nM for the second. The first is the more potent here.

Compared with Cc1cccc(-c2cnc3c(F)cn(CC(=O)N4CC(F)C4)c3c2)c1F [Example 483, 1-(3-Fluoroazetidin-1-yl)-2-[3-fluoro-6-(2-fluoro-3-methyl-phenyl)pyrrolo[3,2-b]pyridin-1-yl]ethanone], O=C(Cn1cc(F)c2ncc(-c3cccc(Cl)c3F)cc21)N1CC(F)C1 [Example 490, 2-[6-(3-Chloro-2-fluoro-phenyl)-3-fluoro-pyrrolo[3,2-b]pyridin-1-yl]-1-(3-fluoroazetidin-1-yl)ethanone] is 3.2-fold lower in IC50: 63.1 nM for the first, 20 nM for the second.

Going from O=C(Cn1cc(F)c2ncc(-c3cccc(C(F)(F)F)c3)cc21)N1CC(F)C1 [Example 484, 1-(3-Fluoroazetidin-1-yl)-2-[3-fluoro-6-[3-(trifluoromethyl)phenyl]pyrrolo[3,2-b]pyridin-1-yl]ethanone] to O=C(Cn1cc(F)c2ncc(-c3cccc(F)c3)cc21)N1CC(F)C1 [Example 492, 1-(3-Fluoroazetidin-1-yl)-2-[3-fluoro-6-(3-fluorophenyl)pyrrolo[3,2-b]pyridin-1-yl]ethanone], the IC50 rises from 12.6 nM to 25.1 nM (2-fold).

First: O=C(Cn1cc(F)c2ncc(-c3cccc(C(F)(F)F)c3F)cc21)N1CC(F)C1 [Example 485, 1-(3-Fluoroazetidin-1-yl)-2-[3-fluoro-6-[2-fluoro-3-(trifluoromethyl)phenyl]pyrrolo[3,2-b]pyridin-1-yl]ethanone]
Second: O=C(Cn1cc(F)c2ncc(-c3ccc(F)c(C(F)(F)F)c3)cc21)N1CC(F)C1 [Example 508, 1-(3-Fluoroazetidin-1-yl)-2-[3-fluoro-6-[4-fluoro-3-(trifluoromethyl)phenyl]pyrrolo[3,2-b]pyridin-1-yl]ethanone]
The IC50 of the first is 3.2-fold lower: 39.8 nM for the first, 126 nM for the second.

O=C(Cn1cc(F)c2ncc(-c3ccc(F)c(F)c3F)cc21)N1CC(F)C1 [Example 486, 1-(3-Fluoroazetidin-1-yl)-2-[3-fluoro-6-(2,3,4-trifluorophenyl)pyrrolo[3,2-b]pyridin-1-yl]ethanone] and O=C(Cn1cc(F)c2ncc(-c3ccccc3F)cc21)N1CC(F)C1 [Example 507, 1-(3-Fluoroazetidin-1-yl)-2-[3-fluoro-6-(2-fluorophenyl)pyrrolo[3,2-b]pyridin-1-yl]ethanone] are within 1.5-fold of each other in IC50: 25.1 nM for the first, 20 nM for the second.

Going from O=C(Cn1cc(F)c2ncc(-c3cc(F)cc(F)c3)cc21)N1CC(F)C1 [Example 487, 2-[6-(3,5-Difluorophenyl)-3-fluoro-pyrrolo[3,2-b]pyridin-1-yl]-1-(3-fluoroazetidin-1-yl)ethanone] to CN(C)C(=O)Cn1cc(F)c2ncc(-c3cc(F)cc(F)c3)cc21 [Example 509, 2-[6-(3,5-Difluorophenyl)-3-fluoro-pyrrolo[3,2-b]pyridin-1-yl]-N,N-dimethyl-acetamide], the IC50 falls from 50.1 nM to 31.6 nM (1.6-fold). The second is the more potent here.

First: CCc1cccc(-c2cnc3c(F)cn(CC(=O)N4CC(F)C4)c3c2)c1 [Example 491, 2-[6-(3-Ethylphenyl)-3-fluoro-pyrrolo[3,2-b]pyridin-1-yl]-1-(3-fluoroazetidin-1-yl)ethanone]
Second: CCc1cccc(-c2cnc3c(F)cn(CC(=O)N4CCC4)c3c2)c1 [Example 498, 1-(Azetidin-1-yl)-2-[6-(3-ethylphenyl)-3-fluoro-pyrrolo[3,2-b]pyridin-1-yl]ethanone]
The IC50 of the first is 5-fold lower: 15.8 nM for the first, 79.4 nM for the second. The first is the more potent here.

First: CN(C)C(=O)Cn1cc(F)c2ncc(-c3ccccc3F)cc21 [Example 493, 2-[3-Fluoro-6-(2-fluorophenyl)pyrrolo[3,2-b]pyridin-1-yl]-N,N-dimethyl-acetamide]
Second: CN(C)C(=O)Cn1cc(Cl)c2ncc(-c3ccccc3F)cc21 [Example 512, 2-[3-Chloro-6-(2-fluorophenyl)pyrrolo[3,2-b]pyridin-1-yl]-N,N-dimethyl-acetamide]
The IC50 of the first is 13-fold lower: 25.1 nM for the first, 316 nM for the second.

Compared with Cc1cccc(-c2cnc3c(F)cn(CC(=O)N(C)C)c3c2)c1F [Example 494, 2-[3-Fluoro-6-(2-fluoro-3-methyl-phenyl)pyrrolo[3,2-b]pyridin-1-yl]-N,N-dimethyl-acetamide], Cc1cccc(-c2cnc3c(Cl)cn(CC(=O)N(C)C)c3c2)c1F [Example 513, 2-[3-Chloro-6-(2-fluoro-3-methyl-phenyl)pyrrolo[3,2-b]pyridin-1-yl]-N,N-dimethyl-acetamide] is 6.3-fold lower in IC50: 316 nM for the first, 50.1 nM for the second. The second is the more potent here.

Compared with CN(C)C(=O)Cn1cc(F)c2ncc(-c3ccccc3)cc21 [Example 495, 2-(3-Fluoro-6-phenyl-pyrrolo[3,2-b]pyridin-1-yl)-N,N-dimethyl-acetamide], CN(C)C(=O)Cn1cc(Cl)c2ncc(-c3ccccc3)cc21 [Example 514, 2-(3-Chloro-6-phenyl-pyrrolo[3,2-b]pyridin-1-yl)-N,N-dimethyl-acetamide] is 10-fold higher in IC50: 12.6 nM for the first, 126 nM for the second. The first is the more potent here.

Going from Cc1cccc(-c2cnc3c(F)cn(CC(=O)N(C)C)c3c2)c1 [Example 496, 2-[3-Fluoro-6-(m-tolyl)pyrrolo[3,2-b]pyridin-1-yl]-N,N-dimethyl-acetamide] to CN(C)C(=O)Cn1cc(F)c2ncc(-c3cccc(Cl)c3)cc21 [Example 503, 2-[6-(3-Chlorophenyl)-3-fluoro-pyrrolo[3,2-b]pyridin-1-yl]-N,N-dimethyl-acetamide], the IC50 falls from 79.4 nM to 15.8 nM (5-fold). The second is the more potent here.

First: CN(C)C(=O)Cn1cc(F)c2ncc(-c3cccc(C(F)(F)F)c3)cc21 [Example 499, 2-[3-Fluoro-6-[3-(trifluoromethyl)phenyl]pyrrolo[3,2-b]pyridin-1-yl]-N,N-dimethyl-acetamide]
Second: CN(C)C(=O)Cn1cc(F)c2ncc(-c3cccc(F)c3)cc21 [Example 510, 2-[3-Fluoro-6-(3-fluorophenyl)pyrrolo[3,2-b]pyridin-1-yl]-N,N-dimethyl-acetamide]
The IC50 of the first is 1.6-fold lower: 25.1 nM for the first, 39.8 nM for the second.

Going from CN(C)C(=O)Cn1cc(F)c2ncc(-c3cccc(C(F)(F)F)c3F)cc21 [Example 500, 2-[3-Fluoro-6-[2-fluoro-3-(trifluoromethyl)phenyl]pyrrolo[3,2-b]pyridin-1-yl]-N,N-dimethyl-acetamide] to CN(C)C(=O)Cn1cc(Cl)c2ncc(-c3cccc(C(F)(F)F)c3F)cc21 [Example 517, 2-[3-Chloro-6-[2-fluoro-3-(trifluoromethyl)phenyl]pyrrolo[3,2-b]pyridin-1-yl]-N,N-dimethyl-acetamide], the IC50 rises from 31.6 nM to 100 nM (3.2-fold). The first is the more potent here.

CN(C)C(=O)Cn1cc(F)c2ncc(-c3ccc(F)c(F)c3F)cc21 [Example 501, 2-[3-Fluoro-6-(2,3,4-trifluorophenyl)pyrrolo[3,2-b]pyridin-1-yl]-N,N-dimethyl-acetamide] and Cc1c(F)ccc(-c2cnc3c(F)cn(CC(=O)N(C)C)c3c2)c1F [Example 502, 2-[6-(2,4-Difluoro-3-methyl-phenyl)-3-fluoro-pyrrolo[3,2-b]pyridin-1-yl]-N,N-dimethyl-acetamide] are the same in IC50: 39.8 nM for the first, 39.8 nM for the second.

Going from CN(C)C(=O)Cn1cc(F)c2ncc(-c3ccc(F)c(Cl)c3)cc21 [Example 504, 2-[6-(3-Chloro-4-fluoro-phenyl)-3-fluoro-pyrrolo[3,2-b]pyridin-1-yl]-N,N-dimethyl-acetamide] to CN(C)C(=O)Cn1cc(Cl)c2ncc(-c3ccc(F)c(Cl)c3)cc21 [Example 520, 2-[3-Chloro-6-(3-chloro-4-fluoro-phenyl)pyrrolo[3,2-b]pyridin-1-yl]-N,N-dimethyl-acetamide], the IC50 rises from 12.6 nM to 79.4 nM (6.3-fold).

Going from CCc1cccc(-c2cnc3c(F)cn(CC(=O)N(C)C)c3c2)c1 [Example 505, 2-[6-(3-Ethylphenyl)-3-fluoro-pyrrolo[3,2-b]pyridin-1-yl]-N,N-dimethyl-acetamide] to Cc1cccc(-c2cnc3c(Cl)cn(CC(=O)N(C)C)c3c2)c1 [Example 515, 2-[3-Chloro-6-(m-tolyl)pyrrolo[3,2-b]pyridin-1-yl]-N,N-dimethyl-acetamide], the IC50 rises from 20 nM to 100 nM (5-fold). The first is the more potent here.

Going from CN(C)C(=O)Cn1cc(Cl)c2ncc(-c3ccc(F)c(C(F)(F)F)c3)cc21 [Example 516, 2-[3-Chloro-6-[4-fluoro-3-(trifluoromethyl)phenyl]pyrrolo[3,2-b]pyridin-1-yl]-N,N-dimethyl-acetamide] to CN(C)C(=O)Cn1cc(Cl)c2ncc(-c3ccc(F)c(F)c3F)cc21 [Example 518, 2-[3-Chloro-6-(2,3,4-trifluorophenyl)pyrrolo[3,2-b]pyridin-1-yl]-N,N-dimethyl-acetamide], the IC50 falls from 200 nM to 63.1 nM (3.2-fold).

Compound Cc1c(F)ccc(-c2cnc3c(Cl)cn(CC(=O)N(C)C)c3c2)c1F [Example 519, 2-[3-Chloro-6-(2,4-difluoro-3-methyl-phenyl)pyrrolo[3,2-b]pyridin-1-yl]-N,N-dimethyl-acetamide] has an IC50 of 63.1 nM.

In the case of O=C(Cn1cc(F)c2ncc(-c3cccc(Cl)c3)cc21)N1CC(F)C1 [Example 489, 2-[6-(3-Chlorophenyl)-3-fluoro-pyrrolo[3,2-b]pyridin-1-yl]-1-(3-fluoroazetidin-1-yl)ethanone], the pIC50 is reported as 8.0.
